Assay results as given in patent US10030027B2, “Soluble guanylate cyclase stimulators” (MERCK SHARP & DOHME CORP., priority 2015, dated 2018).

Key:
[1] = target: sGC α1/β1 heterodimer (Homo sapiens (Human), UniProt Q02108+Q02153); test: Cell-based sGC functional assay (cyclic GMP assay for sGC activator: CASA assay); settings: CHO-K1/sGC cells; for Emax: CHO-K1, activity expressed as percentage of compound A (standard), read-out: % Activation; for EC50: inflection point, 4P fit, read-out: IP
Summary of the method: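 CHO-K1 cells stably expressing human sGC α1/β1 were pre-incubated 30 min at 25° C with or without 1 μM DETA-NO, then exposed to compound for 1 hr at 37° C with 0.5 mM IBMX and 2.5% DMSO final. Intracellular cGMP was measured by HTRF, expressed as % of reference sGC-HDA maximum; inflection point and maximum fold induction came from 4-parameter fits.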

[2] = target: human recombinant sGC enzyme (Homo sapiens (Human), UniProt Q02108+Q02153); test: Size Exclusion Chromatography (SEC) competition binding assay using [3H] Ex-77B as the radioligand; settings: [3H] Ex-77B radioligand, 24 hours at 37° C.
Summary of the method: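 Recombinant human sGC binding measured by competition against tritiated Ex-77B radioligand, with non-specific binding defined by 1 μM unlabeled Ex-77B.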

Row | Structure (SMILES) | Emax [1] [%] | EC50 [1] [nM] | Ki [2] [nM]
1 | CC1(c2cccc(CCC(=O)O)c2)C(=O)Nc2nc(-c3nn(Cc4ccccc4F)c4cc(F)ccc34)nc(N)c21 (centres unmarked) [Example 61A, 3-(3-{4-amino-2-[6-fluoro-1-(2-fluorobenzyl)-1H-indazol-3-yl]-5-methyl-6-oxo-6,7-dihydro-5H-pyrrolo[2,3-d]pyrimidin-5-yl}phenyl)propanoic acid] | 109 | 299 | 0.066
2 | C[C@@]1(c2ccc(CCC(=O)O)cc2)C(=O)Nc2nc(-c3nn(Cc4ncccc4F)c4cc(Cl)ccc34)nc(N)c21 (single isomer, unassigned) [Example 57B] | 104 | 1080 | 0.096
3 | C[C@@]1(c2ccc(CCc3nn[nH]n3)cc2)C(=O)Nc2nc(-c3nn(Cc4ccccc4F)c4ccccc34)nc(N)c21 [Example 242B, (S)-4-amino-2-[1-(2-fluoro-benzyl)-1H-indazol-3-yl]-5-methyl-5-{4-[2-(2H-tetrazol-5-yl)ethyl]phenyl}-5,7-dihydro-6H-pyrrolo[2,3-d] pyrimidin-6-one] | 107 | 3100 | 1.11
4 | CC(C)(Cc1csc([C@]2(C)C(=O)Nc3nc(-c4nn(Cc5ccccc5F)c5cc(F)ccc45)nc(N)c32)n1)C(=O)O [Example 62A, (S)-3-(2-{4-amino-2-[6-fluoro-1-(2-fluorobenzyl)-1H-indazol-3-yl]-5-methyl-6-oxo-6,7-dihydro-5H-pyrrolo[2,3-d]pyrimidin-5-yl}-1,3-thiazol-4-yl)-2,2-dimethylpropanoic acid] | 148 | 141 | 0.022
5 | Cc1cccc(Cn2nc(-c3nc(N)c4c(n3)NC(=O)C4(C)c3nc(CC(C)(C)C(=O)O)co3)c3ccc(Cl)cc32)c1 (centres unmarked) [Example 186A, 3-(2-{4-amino-2-[6-chloro-1-(3-methylbenzyl)-1H-indazol-3-yl]-5-methyl-6-oxo-6,7-dihydro-5H-pyrrolo[2,3-d]pyrimidin-5-yl}-1,3-oxazol-4-yl)-2,2-dimethyl-propanoic acid] | 83.3 | 205 | 0.12
6 | CC1(c2cccc(C(=O)O)c2)C(=O)Nc2nc(-c3nn(Cc4ccccc4F)c4cc(F)ccc34)nc(N)c21 (centres unmarked) [Example 191B, 3-{4-amino-2-[6-fluoro-1-(2-fluorobenzyl)-1H-indazol-3-yl]-5-methyl-6-oxo-6,7-dihydro-5H-pyrrolo[2,3-d]pyrimidin-5-yl} benzoic acid] | 114 | 133 | 0.109
7 | CC1(c2cccc(C(=O)O)c2)C(=O)Nc2nc(-c3nn(CCC(F)(F)C(F)(F)F)c4cc(Cl)ccc34)nc(N)c21 (centres unmarked) [Example 26B, 3-{4-amino-2-[6-chloro-1-(3,3,4,4,4-pentafluorobutyl)-1H-indazol-3-yl]-5-methyl-6-oxo-6,7-dihydro-5H-pyrrolo[2,3-d]pyrimidin-5-yl}benzoic acid] | 102 | 1920 | 0.266
8 | CC(C)(Cc1nc(C2(C)C(=O)Nc3nc(-c4nn(Cc5ccccc5F)c5cc(Cl)ccc45)nc(N)c32)co1)C(=O)O (centres unmarked) [Example 128A, 3-(4-{4-amino-2-[6-chloro-1-(2-fluorobenzyl)-1H-indazol-3-yl]-5-methyl-6-oxo-6,7-dihydro-5H-pyrrolo[2,3-d]pyrimidin-5-yl}-1,3-oxazol-2-yl)-2,2-dimethylpropanoic acid] | 117 | 137 | 0.111
9 | CC1(c2nc(-c3ccc(C(=O)O)cc3)cs2)C(=O)Nc2nc(-c3nn(CCC(F)(F)C(F)(F)F)c4cc(Cl)ccc34)nc(N)c21 (centres unmarked) [Example 156A, 4-(2-{4-amino-2-[6-chloro-1-(3,3,4,4,4-penta-fluorobutyl)-1H-indazol-3-yl]-5-methyl-6-oxo-6,7-dihydro-5H-pyrrolo[2,3-d]pyrimidin-5-yl}-1,3-thiazol-4-yl)benzoic acid] | 93.5 | 161 | 0.17
10 | CC(C)(Cc1csc([C@]2(C)C(=O)Nc3nc(-c4nn(CC5CCCC5)c5ncccc45)nc(N)c32)n1)C(=O)O (single isomer, unassigned) [Example 153A] | 119 | 145 | 0.118
11 | C[C@@]1(c2ccc(CCC(=O)NCc3nn[nH]n3)cc2)C(=O)Nc2nc(-c3nn(Cc4ccccc4F)c4ncccc34)nc(N)c21 [Example 108B, (S)—N-((2H-Tetrazol-5-yl)methyl)-3-(4-{4-amino-2-[1-(2-fluorobenzyl)-1H-pyrazolo[3,4-b]pyridin-3-yl]-5-methyl-6-oxo-6,7-dihydro-5H-pyrrolo[2,3-d]pyrimidin-5-yl}phenyl)propanamide] | 122 | 842 | 0.056
12 | CC(C)(Cc1coc(C2(C)C(=O)Nc3nc(-c4nn(Cc5c(F)ccc(F)c5F)c5cc(Cl)ccc45)nc(N)c32)n1)C(=O)O (centres unmarked) [Example 189A, 3-(2-{4-amino-2-[6-chloro-1-(2,3,6-trifluorobenzyl)-1H-indazol-3-yl]-5-methyl-6-oxo-6,7-dihydro-5H-pyrrolo[2,3-d]pyrimidin-5-yl}-1,3-oxazol-4-yl)-2,2-dimethyl-propanoic acid] | 116 | 51 | 0.049
13 | CC(C)(Cn1cc(C2(C)C(=O)Nc3nc(-c4nn(CCC(F)(F)C(F)(F)F)c5ncccc45)nc(N)c32)cn1)C(=O)O (centres unmarked) [Example 144A, 3-(4-{4-amino-5-methyl-6-oxo-2-[1-(3,3,4,4,4-pentafluorobutyl)-1H-pyrazolo[3,4-b]pyridin-3-yl]-6,7-dihydro-5H-pyrrolo [2,3-d]pyrimidin-5-yl}-1H-pyrazol-1-yl)-2,2-dimethyl-propanoic acid] | 93.1 | 1220 | 0.594
14 | CC1(c2nc(-c3cccc(C(=O)O)c3)cs2)C(=O)Nc2nc(-c3nn(CCC(F)(F)C(F)(F)F)c4cc(Cl)ccc34)nc(N)c21 (centres unmarked) [Example 93A, 3-(2-{4-amino-2-[6-chloro-1-(3,3,4,4,4-pentafluorobutyl)-1H-indazol-3-yl]-5-methyl-6-oxo-6,7-dihydro-5H-pyrrolo[2,3-d]pyrimidin-5-yl}-1,3-thiazol-4-yl)benzoic acid] | 63 | 575 | 0.602
15 | CC1(c2cn(C(C)(C)C(=O)O)nn2)C(=O)Nc2nc(-c3nn(Cc4ccccc4F)c4cc(Cl)ccc34)nc(N)c21 (single isomer, unassigned) [Example 141A, 2-(4-{4-Amino-2-[6-chloro-1-(2-fluorobenzyl)-1H-indazol-3-yl]-5-methyl-6-oxo-6,7-dihydro-5H-pyrrolo[2,3-d]pyrimidin-5-yl}-1H-1,2,3-triazol-1-yl)-2-methylpropanoic acid] |  | 193 | 0.665
16 | CC(C)(Cc1coc(C2(C)C(=O)Nc3nc(-c4nn(CC5CCCCO5)c5ncccc45)nc(N)c32)n1)C(=O)O (single isomer, unassigned) [Example 124AA, 3-{2-[4-amino-5-methyl-6-oxo-2-{1-[tetrahydro-2H-pyran-2-ylmethyl]-1H-pyrazolo[3,4-b]pyridin-3-yl}-6,7-dihydro-5H-pyrrolo[2,3-d]pyrimidin-5-yl]-1,3-oxazol-4-yl}-2,2-dimethylpropanoic acid] | 76.5 | 1600 | 0.506
17 | CC(C)(Cc1csc([C@]2(C)C(=O)Nc3nc(-c4nn(Cc5cccc(F)c5F)c5cc(F)ccc45)nc(N)c32)n1)C(=O)O [Example 199A, (S)-3-(2-{4-amino-2-[1-(2,3-difluorobenzyl)-6-fluoro-1H-indazol-3-yl]-5-methyl-6-oxo-6,7-dihydro-5H-pyrrolo[2,3-d]pyrimidin-5-yl}-1,3-thiazol-4-yl)-2,2-dimethyl-propanoic acid] | 108 | 66 | 0.07
18 | C[C@@]1(c2ccc(CCC(=O)NCC(=O)O)cc2)C(=O)Nc2nc(-c3nn(Cc4ccccc4F)c4ncccc34)nc(N)c21 [Example 100B, (S)-(3-(4-{4-Amino-2-[1-(2-fluorobenzyl)-1H-pyrazolo[3,4-b]pyridin-3-yl]-5-methyl-6-oxo-6,7-dihydro-5H-pyrrolo[2,3-d]pyrimidin-5-yl}phenyl)propanoyl)glycine] | 109 | 1800 | 0.039
19 | COCCn1nc(-c2nc(N)c3c(n2)NC(=O)[C@@]3(C)c2ccc(CCC(=O)O)cc2)c2ccc(Cl)cc21 (single isomer, unassigned) [Example 40B] | 94 | 2560 | 4.38
20 | CC1(c2cn(CC(=O)O)nn2)C(=O)Nc2nc(-c3nn(CCC(F)(F)C(F)(F)F)c4cc(Cl)ccc34)nc(N)c21 (centres unmarked) [Example 28B, (4-{4-amino-2-[6-chloro-1-(3,3,4,4,4-pentafluorobutyl)-1H-indazol-3-yl]-5-methyl-6-oxo-6,7-dihydro-5H-pyrrolo[2,3-d]pyrimidin-5-yl}-1H-1,2,3-triazol-1-yl)acetic acid] | 105 | 2170 | 0.536
21 | C[C@@]1(c2ccc(CCC(=O)O)cc2)C(=O)Nc2nc(-c3nn(Cc4ccccc4F)c4ncc(F)cc34)nc(N)c21 [Example 23B, (S)-3-(4-{4-amino-2-[5-fluoro-1-(2-fluorobenzyl)-1H-pyrazolo[3,4-b]pyridin-3-yl]-5-methyl-6-oxo-6,7-dihydro-5H-pyrrolo[2,3-d]pyrimidin-5-yl}phenyl)propanoic acid] | 109 | 203 | 0.099
22 | CC(C)(C)CCn1nc(-c2nc(N)c3c(n2)NC(=O)[C@@]3(C)c2ccc(CCC(=O)O)cc2)c2cccnc21 [Example 210B, (S)-3-(4-{4-amino-2-[1-(3,3-dimethylbutyl)-1H-pyrazolo[3,4-b]pyridin-3-yl]-5-methyl-6-oxo-6,7-dihydro-5H-pyrrolo[2,3-d]pyrimidin-5-yl}phenyl)propanoic acid] | 103 | 2020 | 0.341
